Reference: patent publication US10745352B2, “Dual function molecules for histone deacetylase inhibition and ataxia telangiectasia mutated activation and methods of use thereof” (Shuttle Pharmaceuticals, Inc., priority 2015, dated 2020)

Tests used:
ATM = ATM activation: phospho-ATM (S1981) ELISA on the nuclear fraction of MCF7 cells; format: cell-based, Human; conditions: 1 μM, time course of 6 hours
Protocol: Several assays were utilized to determine the ability of the compounds of the invention to activate ATM over a period of time. […] The fold change in phospho-ATM was measured over a period of time. Accordingly, the increase in phospho-ATM indicates activation of ATM by the compounds of the invention.
In certain examples, the activity of the compounds of the invention was compared to additional modulators of ATM, such as […] (a specific ATM inhibitor); dimethylsulfoxide (DMSO) (a solvent); 3,3′-diindolylmethane (DIM) (an ATM activator); and irradiation (irradiation may result in the generation of phospho-ATM due to DNA damage). DIM was not used as a comparative compound in Example 5.
Materials: MCF7 Cells; Complete RPMI media: RPMI, 10% Fetal Bovine Serum (FBS), 5% L-glutamine, 5% Pen/Strep; R&D Systems Human P-ATM (S1981) DuoSet IC ELISA Assay Kit; Plate sealers; Normal mouse serum (heat inactivated 56 C for 30 min); 96-well ELISA microtiter plate; 450 nm Plate Reader; 60 mm dishes; Disposable pipettes; Pipet-aid; Pipette tips; Micro-pipetter; Cell scraper; Distilled water; Pierce NE-PER Nuclear and Cytoplasmic Extraction Reagent; Pierce Protease and Phosphotase Inhibitor Mini Tablets; KU-55933; DIM (not used in Example 5); Dimethyl sulfoxide (DMSO); Phosphate buffered saline (PBS); and Sterile micro-tubes and conical tubes; Hemocytometer; Microscope; Micro-centrifuge.
MCF7 Cells were grown in Complete RPMI media and 10^6 cells were seeded into 60 mm dishes. Dishes were then divided into duplicate treatments the following day. Control samples were treated with 3 ml RPMI media for 1 hr. Vehicle samples were treated with 3 ml RPMI media plus 0.1% DMSO for 1 hr. Negative control samples were treated with 10 μM KU-55933 in 3 ml RPMI media plus 0.1% DMSO for 1 Hr. Positive control samples were treated with 0.5 μM DIM in 3 ml RPMI media plus 0.1% DMSO for 30 min. Test Samples were treated with 1 μM of the test compounds (e.g. N-(6-(hydroxyamino)-6-oxohexyl)-1H-indole-2-carboxamide in Example 5) in 3 ml RPMI media plus 0.1% DMSO for 30 min; 1 hr; 2 hrs; 4 hrs; and 6 hrs. At their designated time, samples were harvested on ice using a cell scraper and two washes of 1 ml PBS and kept as a cell pellet on dry ice until all were collected. After all samples were collected they were thawed on ice and separated into cytosolic and nuclear fractions using the Pierce NE-PER Nuclear and Cytoplasmic Extraction Reagent kit with added Pierce protease and phosphotase inhibitor tablet.
After recovery of the separate fractions, the process further included washing cells by suspending the cell pellet with PBS. 1-10×10^6 cells were transferred to a 1.5 mL microcentrifuge tube and a pellet was formed by centrifugation at 500×g for 2-3 minutes. […]

pan-HDACs = assay: Pan-HDAC assay (Fluor-de-Lys fluorometric kit, HeLa Nuclear Extract); format: biochemical; conditions: values are average EC50, read-out: EC50 against pan-HDACs
Protocol: Certain compounds of the invention were tested in a pan-HDAC assay to determine the ability of such compounds to inhibit HDAC protein. Specifically, the compounds tested included: N-(6-(hydroxyamino)-6-oxohexyl)-3-methyl-1H-indole-2-carboxamide (SP-1-161) (FIG. 8A); N^1-hydroxy-N^6-(2-(2-methyl-1H-indol-3-yl)ethyl)octanediamide (SP-1-163) (FIG. 8A); (S)—N-(6-(hydroxyamino)-6-oxohexyl)-1-tosylindoline-2-carboxamide (SP-1-169) (FIG. 8B); and (S)-1-((5-(dimethylamino)naphthalene-1-yl)sulfonyl)-N-(6-(hydroxyamino)-6-oxoheyl)indoline-carboxamide (SP-1-171) (FIG. 8B).
The Pan HDAC assay was performed as follows:
Materials: Enzo Fluor-de-Lys HDAC fluorometric activity assay kit; 360 nm excitation 460 nm emission Plate Reader; Disposable pipettes; Pipet-aid; Pipette tips; Micro-pipetter; DMSO; Sterile micro-tubes and conical tubes; and Micro-centrifuge.
Test compounds and control preparation: All test compounds' stock solutions were made in 100% DMSO. Test compound dilutions were made in HDAC Assay buffer with a final concentration of DMSO less than or equal to 1%. Vehicle control was HDAC Assay buffer with 1% DMSO.
The reagents for the assay were prepared as follows:
1. All kit components were defrosted and these, and all dilutions described below, were kept on ice until use. All undiluted kit components are stable for several hours on ice.
2. A sufficient amount of HeLa Nuclear Extract (BML-KI140) or other HDAC source diluted in Assay Buffer (BML-KI143) was prepared to provide for the assays that were performed (# of wells×15 μl). A 30-fold dilution of the HeLa Extract means that 15 μl contains 0.5 μl of the undiluted Extract, an appropriate amount to use per well.
3. Dilution(s) of Trichostatin A and/or Test Inhibitors were prepared in Assay Buffer (BML-KI143). Since 10 μl were used per well, and since the final volume of the HDAC reaction was 50 μl, these inhibitor dilutions were 5× their final concentration.
4. Dilution(s) of the Fluor de Lys® Substrate (BML-KI104; 50 mM) were prepared in Assay Buffer (BML-KI143) that were 2× the desired final concentration(s). For inhibitor screening, substrate concentrations at or below the Km are recommended. Twenty-five μL were used per well. Initial dilutions of 25-fold or greater in Assay Buffer (2.0 mM or less) yielded stable solutions (see NOTE on freezing and thawing below). Rapid mixing and dilution into room temperature buffer helped to prevent precipitation at high substrate concentration. NOTE: Freezing/thawing of Fluor de Lys® Substrate solutions in Assay Buffer may cause precipitation of the Substrate. Dilute only amount necessary for one day's experiment.
5. Shortly before use (<30 min.), sufficient Fluor de Lys® Developer was prepared for the assays to be performed (50 μl per well). […]

| SMILES | ATM activation (level of ATM phosphorylation, phospho-ATM) (ATM) | ATM activation (level of ATM phosphorylation, phospho-ATM) (ATM; listed as 2,3-dimethylindole) | EC50 (pan-HDACs) [nM] |
| --- | --- | --- | --- |
| Cc1[nH]c2ccccc2c1C [2,3-dimethyl indole, reference compound] | significant increase in ATM phosphorylation | significant increase in ATM activation |  |
| Cc1[nH]c2ccccc2c1CCNC(=O)CCCCCCC(=O)NO [SP-1-163, N^1-hydroxy-N^6-(2-(2-methyl-1H-indol-3-yl)ethyl)octanediamide] | exemplary ATM activation activity |  | 112 |
| CN(C)c1cccc2c(S(=O)(=O)N3c4ccccc4C[C@H]3C(=O)NCCCCCC(=O)NO)cccc12 [SP-1-171, (S)-1-((5-(dimethylamino)naphthalene-1-yl)sulfonyl)-N-(6-(hydroxyamino)-6-oxoheyl)indoline-carboxamide] |  |  | 25.3 |
| Cc1ccc(S(=O)(=O)N2c3ccccc3C[C@H]2C(=O)NCCCCCC(=O)NO)cc1 [SP-1-169, (S)—N-(6-(hydroxyamino)-6-oxohexyl)-1-tosylindoline-2-carboxamide] |  |  | 265 |
